Test system: MCF7
Assay: Cytotoxicity against human MCF7 cells after 48 hrs by MTT assay
Assay type: functional, cell-based
Conditions: MCF7, 48 h

Row | Structure (SMILES) | IC50 [µM]
1 | COc1cc(O)c2c(c1O)C(=O)C1=C(C2=O)C(O)C(O)C(C)(O)C1 (stereo unspecified) | 7.5
2 | CC(CO)c1cc(O)c2c(c1)CC[C@H]1C(C)(C)CCC[C@]1(O)C2 (stereo partly specified) | 10.8
3 | C=C[C@@]1(C)C=C2[C@@H](O[C@@H]3O[C@H](C)[C@H](O)[C@H](O)[C@H]3O)C[C@@H]3C(C)(C)[C@H](O[C@@H]4O[C@@H](C)[C@H](O)[C@@H](O)[C@H]4O)CC[C@@]3(C)[C@@H]2CC1 | 10.2
4 | COC1=C(C)C(O)=CC2C(=O)c3c(ccc(OC)c3OC)C(=O)C12 (stereo unspecified) | 10.2
5 | CC(CO)c1cc2c(c(O)c1O)C[C@@]1(O)CCCC(C)(C)[C@@H]1CC2 (stereo partly specified) | 16
6 | C[C@]1(O)Cc2c(O)c3c(c(O)c2[C@H](O)[C@H]1O)C(=O)C(SCCO)=C(SCCO)C3=O | 14.4
7 | C[C@]1(O)Cc2c(O)c3c(c(O)c2[C@H](O)[C@H]1O)C(=O)C=C(N1CCC(c2ccccc2)CC1)C3=O | 4.81
8 | COc1cc(-c2nc(/C=C/C(=O)c3ccc(N)cc3)cc3c2[nH]c2ccccc23)cc(OC)c1OC | 14.6
9 | C[C@]1(O)Cc2c(O)c3c(c(O)c2[C@H](O)[C@H]1O)C(=O)C=C(N1CCCCC1)C3=O | 3.14
10 | COC(=O)c1ccc2c(=O)c3c(O)cc(CCO)cc3oc2c1O | 2.7
11 | CCCCCCNC1=CC(=O)c2c(O)c3c(c(O)c2C1=O)C[C@](C)(O)[C@H](O)[C@H]3O | 4.87
12 | COc1cc(O)c(C(CO)C(O)CO)c2oc3cccc(O)c3c(=O)c12 (stereo unspecified) | 9.7
13 | COc1ccc(CNC2=CC(=O)c3c(O)c4c(c(O)c3C2=O)C[C@](C)(O)[C@H](O)[C@H]4O)cc1 | 9.17
14 | CCCCSC1=C(SCCCC)C(=O)c2c(O)c3c(c(O)c2C1=O)C[C@](C)(O)[C@H](O)[C@H]3O | 2.45
15 | COC(=O)c1cccc2oc3cc(CCO)cc(O)c3c(=O)c12 | 4.6
16 | O=C1C(=O)c2cccnc2-c2ncccc21 | 0.58
17 | C=C[C@@]1(C)C=C2[C@@H](O[C@@H]3O[C@H](C)[C@H](O)[C@H](O)[C@H]3O)C[C@@H]3C(C)(C)[C@H](O[C@@H]4O[C@@H](C)[C@H](O)[C@@H](O)[C@H]4O[C@H]4O[C@H](CO)[C@@H](O)[C@H](O)[C@H]4O)CC[C@@]3(C)[C@@H]2CC1 | 5.6
18 | COc1cc(C(=O)/C=C/c2cc3c([nH]c4ccccc43)c(-c3ccc(F)c(F)c3)n2)cc(OC)c1OC | 8.7
19 | C#CCOc1cc(O)c2c(c1)C(=O)c1cc(C)cc(O)c1C2=O | 20
20 | CCCNC1=CC(=O)c2c(O)c3c(c(O)c2C1=O)C[C@](C)(O)[C@H](O)[C@H]3O | 14
21 | Nc1ccc(C(=O)/C=C/c2cc3c([nH]c4ccccc43)c(-c3ccc(F)c(F)c3)n2)cc1 | 10.5
22 | CC(CO)c1cc(O)c2c(c1)[C@@H](O)C[C@H]1C(C)(C)CCC[C@]1(O)C2 (stereo partly specified) | 15.8
23 | Cc1cc(O)c2c(c1)C(=O)c1cc(OCCN(C)C)cc(O)c1C2=O | 4.5
24 | COc1ccc2oc3ccccc3c(=O)c2c1O | 16.5
25 | CNC1=CC(=O)c2c(O)c3c(c(O)c2C1=O)C[C@](C)(O)[C@H](O)[C@H]3O | 3.58
26 | CCCCNC1=CC(=O)c2c(O)c3c(c(O)c2C1=O)C[C@](C)(O)[C@H](O)[C@H]3O | 1.08
27 | C=C[C@@]1(C)C=C2[C@@H](O[C@@H]3O[C@H](C)[C@H](O)[C@H](O)[C@H]3O)C[C@@H]3C(C)(C)[C@H](O[C@@H]4O[C@@H](C)[C@H](O)[C@@H](O)[C@H]4O[C@H]4O[C@H](C)[C@H](O)[C@H](O)[C@H]4O)CC[C@@]3(C)[C@@H]2CC1 | 4.7

Test system: A549
Assay: Cytotoxicity against human A549 cells after 48 hrs by MTT assay
Assay type: functional, cell-based
Conditions: Homo sapiens, A549, 48 h

Row | Structure (SMILES) | IC50 [µM]
28 | O=C(/C=C/c1cc2c([nH]c3ccccc32)c(-c2ccc(F)c(F)c2)n1)c1ccco1 | 9.54
29 | COc1ccnc2c1C(=O)C1N=CC=C(c3ccccc3)C1C2=O (stereo unspecified) | 10.6
30 | O=c1c2ccccc2oc2cc(O)ccc12 | 14.6
31 | CC(C)=CCc1c(O)c(CC=C(C)C)c2oc3ccc(O)cc3c(=O)c2c1O | 8.85
32 | COC(=O)c1c(O)ccc2oc3cc(C)cc(O)c3c(=O)c12 | 5.2
33 | CC1CCN(CC2CCc3c(n(C)c4ccccc34)C2=O)CC1 (stereo unspecified) | 0.71
34 | O=C1c2c(O)ccnc2C(=O)C2C(c3ccccc3)=CC=NC12 (stereo unspecified) | 14.5
35 | CC(C)c1cc2c(cc1O)[C@@]1(C)CCC[C@](C)(CO)[C@@H]1CC2 | 14
36 | C=C[C@@]1(C)C=C2[C@@H](O[C@@H]3O[C@H](C)[C@H](O)[C@H](O)[C@H]3O)C[C@@H]3C(C)(C)[C@H](O[C@@H]4O[C@@H](C)[C@H](O)[C@@H](O)[C@H]4OC(C)=O)CC[C@@]3(C)[C@@H]2CC1 | 10.4
37 | Cc1cnc2c(c1)C(=O)C1N=CC=C(C=O)C1C2=O (stereo unspecified) | 0.33
38 | COc1cc(-c2nc(/C=C/C(=O)c3ccc(N)cc3)cc3c2[nH]c2ccccc23)cc(OC)c1OC | 11.8
39 | CC(C)(O)c1ccc2c(c1)C(=O)C[C@H]1C(C)(C)CCC[C@]21C | 14
40 | CC(=O)N1N=C(c2ccc(N)cc2)CC1c1cc2c([nH]c3ccccc32)c(-c2ccc(C(F)(F)F)cc2)n1 (stereo unspecified) | 13.2
41 | O=C(/C=C/c1cc2c([nH]c3ccccc32)c(-c2ccc(F)c(F)c2)n1)c1cccs1 | 6.76
42 | CN(Cc1ccccc1)CC1CCc2c(n(C)c3ccccc23)C1=O (stereo unspecified) | 14.1
43 | COc1cc(-c2nc(C3CC(c4ccco4)=NN3C(C)=O)cc3c2[nH]c2ccccc23)cc(OC)c1OC (stereo unspecified) | 3.2
44 | CC1=CC2C(=O)c3nccc(Cl)c3C(=O)C2N=C1 (stereo unspecified) | 13.7
45 | Cc1cnc2c(c1)C(=O)C1C=CC=NC1C2=O (stereo unspecified) | 2.23
46 | CC(=O)N1N=C(c2ccco2)CC1c1cc2c([nH]c3ccccc32)c(-c2cccc(Cl)c2)n1 (stereo unspecified) | 15.4

Row | Structure (SMILES) | IC50 [µM]
47 | COc1cc(C2=NN(C(C)=O)C(c3cc4c([nH]c5ccccc54)c(-c4ccc(F)c(F)c4)n3)C2)cc(OC)c1OC (stereo unspecified) | 11
48 | O=C(/C=C/c1cc2c([nH]c3ccccc32)c(-c2ccc(C(F)(F)F)cc2)n1)c1ccco1 | 2.57
49 | CC(=O)N1N=C(c2ccco2)CC1c1cc2c([nH]c3ccccc32)c(-c2ccc(C(F)(F)F)cc2)n1 (stereo unspecified) | 2.39
50 | CCN(CC)CC1CCc2c(n(C)c3ccccc23)C1=O (stereo unspecified) | 0.07
51 | O=C(/C=C/c1cc2c([nH]c3ccccc32)c(-c2ccc(F)cc2)n1)c1ccc(F)cc1 | 5.65
52 | Cc1cnc2c(c1)C(=O)C1N=CC=C(/C=C/C#N)C1C2=O (stereo unspecified) | 7.88
53 | COc1cc(-c2nc(/C=C/C(=O)c3ccco3)cc3c2[nH]c2ccccc23)cc(OC)c1OC | 3.8
54 | COc1ccc(C(=O)/C=C/c2cc3c([nH]c4ccccc43)c(-c3ccc(F)cc3)n2)cc1 | 8.43
55 | CC(=O)N1N=C(c2ccc(N)cc2)CC1c1cc2c([nH]c3ccccc32)c(-c2ccc(F)c(F)c2)n1 (stereo unspecified) | 9.77
56 | COc1ccc(C(=O)/C=C/c2cc3c([nH]c4ccccc43)c(-c3ccc(F)c(OC)c3)n2)cc1 | 5.1
57 | COC(=O)c1ccc2c(=O)c3c(OC)cc(CCO)cc3oc2c1O | 4.8
58 | Cc1cnc2c(c1)C(=O)C1N=CC=CC1C2=O (stereo unspecified) | 3.72
59 | O=C(/C=C/c1cc2c([nH]c3ccccc32)c(-c2cccc(Cl)c2)n1)c1ccco1 | 18.6
60 | O=C1c2c(O)ccc(O)c2C(=O)c2c(NCCNCCO)ccc(NCCNCCO)c21 [MITOXANTRONE] | 7.25
61 | COc1ccc(C(=O)/C=C/c2cc3c([nH]c4ccccc43)c(-c3cc(OC)c(OC)c(OC)c3)n2)cc1 | 9.61
62 | CC1=CC2C(=O)c3nccc(N(C)C)c3C(=O)C2N=C1 (stereo unspecified) [listing 1 of 2 here] | 3.29
63 | Nc1ccc(C(=O)/C=C/c2cc3c([nH]c4ccccc43)c(-c3ccc(C(F)(F)F)cc3)n2)cc1 | 2.95
64 | CC1=CC2C(=O)c3nccc(I)c3C(=O)C2N=C1 (stereo unspecified) | 0.14

Same assay, conditions: a549

Row | Structure (SMILES) | IC50 [µM]
65 | CC1=CC2C(=O)c3nccc(N(C)C)c3C(=O)C2N=C1 (stereo unspecified) [listing 2 of 2 here] | 3.12

Test system: HepG2
Assay: Cytotoxicity against human HepG2 cells after 48 hrs by MTT assay
Assay type: functional, cell-based
Conditions: HepG2, 48 h

Row | Structure (SMILES) | IC50 [µM]
66 | O=C1c2cccc(O)c2C(=O)c2c(O)cc(Cn3ccc(=O)[nH]c3=O)cc21 | 3.9
67 | CN(C)CCNC1=CC(=O)c2c(O)c3c(c(O)c2C1=O)C[C@](C)(O)[C@H](O)C3 | 2.26
68 | Cc1ccc(C2C3=C(CC(C)(C)CC3=O)N(c3ccc(Cl)cc3)C3=C2C(=O)CC(C)(C)C3)cc1 | 9.34
69 | CCCCCCOc1cccc2c1C(=O)c1c(OCCCCCC)cc(Cn3cc(C)c(=O)[nH]c3=O)cc1C2=O | 4.2
70 | CC(C)=CCc1c(O)c(CC=C(C)C)c2oc3cc(O)ccc3c(=O)c2c1O | 18.7
71 | COc1ccc(CNC2=CC(=O)c3c(O)c4c(c(O)c3C2=O)C[C@](C)(O)[C@H](O)C4)cc1 | 10.1
72 | Cc1cc(O)c2c(c1)C(=O)c1cc(O)c(CN3CCOCC3)c(O)c1C2=O | 17.9
73 | CC(C)=CCc1c(O)cc2oc3ccccc3c(=O)c2c1O | 9.81
74 | C[C@]1(O)Cc2c(O)c3c(c(O)c2C[C@H]1O)C(=O)C=C(NCc1ccccc1)C3=O | 13.4
75 | CCOP(=O)(OCC)C(C)(CCc1ccccc1)NC(=O)c1cc(O)c2c(c1)C(=O)c1cccc(O)c1C2=O (stereo unspecified) | 8.82
76 | CCn1c2ccccc2c2cc(C3=NCCc4c3[nH]c3ccccc43)ccc21 | 2.3
77 | O=c1c2cc(O)ccc2oc2cc(O)cc(O)c12 | 18.3
78 | CC(C)=CCc1c(O)cc2oc3cccc(O)c3c(=O)c2c1O | 1.49
79 | C[C@]1(O)Cc2c(O)c3c(c(O)c2C[C@H]1O)C(=O)C=C(N1CCC(c2ccccc2)CC1)C3=O | 11.8
80 | O=C(NCCN1CCOCC1)c1cc(O)c2c(c1)C(=O)c1cc(O)cc(O)c1C2=O | 20
81 | CCSC1=C(SCC)C(=O)c2c(O)c3c(c(O)c2C1=O)C[C@@H](O)[C@@](C)(O)C3 | 11.6
82 | O=c1c2ccccc2oc2cc(O)cc(O)c12 | 19.5

Test system: HCT-116
Assay: Cytotoxicity against human HCT116 cells after 48 hrs by MTT assay
Assay type: functional, cell-based
Conditions: HCT-116, 48 h

Row | Structure (SMILES) | IC50 [µM]
83 | CC(=O)OC[C@]12Oc3ccc(-c4ccc(O)c5c4O[C@@]4(CO)C(=C(O)C[C@@H](C)[C@H]4OC(C)=O)C5=O)c(O)c3C(=O)C1=C(O)C[C@@H](C)[C@H]2OC(C)=O | 6.92
84 | CCCCCCSC1=C(SCCCCCC)C(=O)c2c(O)c3c(c(O)c2C1=O)C[C@](C)(O)[C@H](O)[C@H]3O | 0.74
85 | O=c1c2ccc(O)c(O)c2oc2cc(O)cc(O)c12 | 18.6
86 | CO[C@H]1[C@H](O)C[C@@H](O[C@@H]2C[C@H](Oc3cc4cc5c(c(O)c4c(O)c3C)C(=O)[C@@H](O[C@H]3C[C@H](O[C@H]4C[C@H](O[C@H]6C[C@@](C)(O)[C@@H](OC(C)=O)[C@H](C)O6)[C@H](O)[C@@H](C)O4)[C@H](O)[C@@H](C)O3)[C@H]([C@H](OC)C(=O)[C@@H](O)[C@@H](C)O)C5)O[C@H](C)[C@H]2OC(C)=O)O[C@@H]1C | 0.3

— ChEMBL document CHEMBL4316584, “All that glitters is not gold: Panning cytotoxic natural products and derivatives with a fused tricyclic backbone by the estimation of their leadlikeness for cancer treatment” (Eur J Med Chem, 2019)
